In ChEMBL document CHEMBL5380863 (J Med Chem, 2023):

What was measured:
[1] = biological target: T1, Tyrosine-protein kinase JAK1 (Homo sapiens, UniProt P23458); details: dose 500.0 nM
[2] = biological target: Histone deacetylase 2 (Homo sapiens, UniProt Q92769)
[3] = in vivo; details: Sprague-Dawley, rat, po, 15 mg/kg
[4] = biological target: Muscle, skeletal receptor tyrosine-protein kinase (Homo sapiens) (UniProt O15146); details: dose 500.0 nM
[5] = biological target: Tyrosine-protein kinase JAK3 (Homo sapiens, UniProt P52333)
[6] = in vivo; details: Sprague-Dawley, rat, po, 15 mg/kg; remark: listed apart in the source
[7] = tested on: K562; test: cells; type: functional, cell-based; details: Homo sapiens, K562, 72 h
[8] = biological target: Histone deacetylase 1 (Homo sapiens, UniProt Q13547); type: cell-based, HeLa
[9] = in vivo; details: Sprague-Dawley, rat, po, 15 mg/kg; remark: listed apart in the source
[10] = tested on: PC-3; test: cells; type: functional, cell-based; details: Homo sapiens, PC-3, 72 h
[11] = tested on: HL-60; test: cells; type: functional, cell-based; details: Homo sapiens, HL-60, 72 h
[12] = in vivo; details: Sprague-Dawley, rat, po, 15 mg/kg; remark: listed apart in the source
[13] = biological target: Histone deacetylase 7 (Homo sapiens, UniProt Q8WUI4)
Sequence of Histone deacetylase 7 (Q8WUI4 whole entry): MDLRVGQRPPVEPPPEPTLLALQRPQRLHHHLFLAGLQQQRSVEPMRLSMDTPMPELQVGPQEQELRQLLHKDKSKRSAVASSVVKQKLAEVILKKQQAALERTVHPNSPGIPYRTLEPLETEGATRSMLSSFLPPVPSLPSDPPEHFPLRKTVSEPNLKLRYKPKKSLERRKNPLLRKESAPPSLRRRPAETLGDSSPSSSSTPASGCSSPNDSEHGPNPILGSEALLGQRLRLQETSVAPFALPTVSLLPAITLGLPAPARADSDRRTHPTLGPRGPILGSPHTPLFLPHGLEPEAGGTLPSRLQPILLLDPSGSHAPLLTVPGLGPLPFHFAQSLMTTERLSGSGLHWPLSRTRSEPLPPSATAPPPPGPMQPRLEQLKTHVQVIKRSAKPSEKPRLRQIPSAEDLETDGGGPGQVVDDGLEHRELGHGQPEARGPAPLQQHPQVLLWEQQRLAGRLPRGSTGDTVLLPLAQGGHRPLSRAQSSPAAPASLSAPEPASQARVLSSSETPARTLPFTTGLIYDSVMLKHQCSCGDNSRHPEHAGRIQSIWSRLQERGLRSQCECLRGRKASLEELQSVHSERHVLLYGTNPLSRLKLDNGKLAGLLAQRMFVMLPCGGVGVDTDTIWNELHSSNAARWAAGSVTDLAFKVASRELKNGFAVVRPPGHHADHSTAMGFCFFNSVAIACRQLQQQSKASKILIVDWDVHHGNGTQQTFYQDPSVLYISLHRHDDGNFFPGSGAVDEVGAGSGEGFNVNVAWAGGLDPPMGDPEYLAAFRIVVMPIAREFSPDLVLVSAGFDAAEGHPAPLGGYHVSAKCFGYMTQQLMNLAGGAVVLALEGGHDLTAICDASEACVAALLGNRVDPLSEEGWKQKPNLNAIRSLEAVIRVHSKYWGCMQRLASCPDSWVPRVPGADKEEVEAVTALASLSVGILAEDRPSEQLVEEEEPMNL

[14] = biological target: Histone deacetylase 4 (Homo sapiens, UniProt P56524)
[15] = tested on: MCF7; test: cells; type: functional, cell-based; details: Homo sapiens, MCF7, 72 h
[16] = biological target: Polyamine deacetylase HDAC10 (Homo sapiens, UniProt Q969S8)
[17] = in vivo; details: Sprague-Dawley, rat, iv, 3 mg/kg
[18] = biological target: Activated CDC42 kinase 1 (Homo sapiens) (UniProt Q07912); details: dose 500.0 nM
[19] = in vivo; details: Sprague-Dawley, rat, iv, 3 mg/kg; remark: listed apart in the source
[20] = biological target: Tyrosine-protein kinase Fyn (Homo sapiens) (UniProt P06241); details: dose 500.0 nM
[21] = biological target: T1, Tyrosine-protein kinase JAK1
[22] = tested on: A549; test: cells; type: functional, cell-based; details: Homo sapiens, A549, 72 h
[23] = in vivo; details: Sprague-Dawley, rat, iv, 3 mg/kg; remark: listed apart in the source
[24] = in vitro; details: Sprague-Dawley, rat, plasma
[25] = biological target: Histone deacetylase 9 (Homo sapiens, UniProt Q9UKV0)
[26] = tested on: HEL; test: cells; type: functional, cell-based; details: Homo sapiens, 72 h
[27] = biological target: Non-receptor tyrosine-protein kinase TYK2 (Homo sapiens, UniProt P29597)
Sequence of Non-receptor tyrosine-protein kinase TYK2 (P29597 whole entry): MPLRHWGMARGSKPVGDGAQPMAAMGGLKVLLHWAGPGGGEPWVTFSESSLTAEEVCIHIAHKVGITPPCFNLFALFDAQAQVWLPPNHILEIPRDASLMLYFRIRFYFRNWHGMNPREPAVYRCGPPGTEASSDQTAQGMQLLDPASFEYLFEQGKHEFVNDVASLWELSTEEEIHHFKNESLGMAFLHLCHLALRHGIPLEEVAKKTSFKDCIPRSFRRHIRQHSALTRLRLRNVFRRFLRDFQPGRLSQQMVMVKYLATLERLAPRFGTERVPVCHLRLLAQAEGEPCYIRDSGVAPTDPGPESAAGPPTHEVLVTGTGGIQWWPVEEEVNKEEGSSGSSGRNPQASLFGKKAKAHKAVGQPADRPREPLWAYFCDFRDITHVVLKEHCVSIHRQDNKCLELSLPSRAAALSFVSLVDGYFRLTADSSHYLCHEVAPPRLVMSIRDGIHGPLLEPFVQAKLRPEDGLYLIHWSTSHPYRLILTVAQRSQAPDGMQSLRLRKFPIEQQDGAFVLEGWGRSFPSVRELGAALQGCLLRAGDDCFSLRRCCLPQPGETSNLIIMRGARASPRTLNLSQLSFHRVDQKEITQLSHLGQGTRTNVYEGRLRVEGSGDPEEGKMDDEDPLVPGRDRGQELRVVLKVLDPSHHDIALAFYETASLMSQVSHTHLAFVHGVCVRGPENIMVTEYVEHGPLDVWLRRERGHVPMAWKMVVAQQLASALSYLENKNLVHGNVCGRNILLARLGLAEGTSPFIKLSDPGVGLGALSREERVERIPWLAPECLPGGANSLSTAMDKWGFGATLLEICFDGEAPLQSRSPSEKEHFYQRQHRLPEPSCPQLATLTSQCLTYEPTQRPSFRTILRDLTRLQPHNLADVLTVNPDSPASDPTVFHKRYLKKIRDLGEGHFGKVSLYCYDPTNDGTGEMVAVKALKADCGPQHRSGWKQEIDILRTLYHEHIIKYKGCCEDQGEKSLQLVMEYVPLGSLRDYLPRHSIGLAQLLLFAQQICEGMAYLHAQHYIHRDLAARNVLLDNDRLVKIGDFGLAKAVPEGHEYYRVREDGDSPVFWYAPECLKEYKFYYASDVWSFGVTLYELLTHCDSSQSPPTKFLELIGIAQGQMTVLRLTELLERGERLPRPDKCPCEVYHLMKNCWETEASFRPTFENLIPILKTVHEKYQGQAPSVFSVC

[28] = tested on: HeLa; test: cells; type: functional, cell-based; details: Homo sapiens, 72 h
[29] = biological target: Histone deacetylase 8 (Homo sapiens, UniProt Q9BY41)
[30] = biological target: Histone deacetylase 5 (Homo sapiens, UniProt Q9UQL6)
[31] = rat, in vivo, po, 15 mg/kg, 24 h
[32] = biological target: Protein deacetylase HDAC6 (Homo sapiens, UniProt Q9UBN7)
[33] = biological target: Histone deacetylase; type: cell-based, Homo sapiens; details: hela
[34] = in vivo; details: Sprague-Dawley, rat, iv, 3 mg/kg; remark: listed apart in the source
[35] = biological target: Histone deacetylase 11 (Homo sapiens, UniProt Q96DB2)
Sequence of Histone deacetylase 11 (Q96DB2 whole entry): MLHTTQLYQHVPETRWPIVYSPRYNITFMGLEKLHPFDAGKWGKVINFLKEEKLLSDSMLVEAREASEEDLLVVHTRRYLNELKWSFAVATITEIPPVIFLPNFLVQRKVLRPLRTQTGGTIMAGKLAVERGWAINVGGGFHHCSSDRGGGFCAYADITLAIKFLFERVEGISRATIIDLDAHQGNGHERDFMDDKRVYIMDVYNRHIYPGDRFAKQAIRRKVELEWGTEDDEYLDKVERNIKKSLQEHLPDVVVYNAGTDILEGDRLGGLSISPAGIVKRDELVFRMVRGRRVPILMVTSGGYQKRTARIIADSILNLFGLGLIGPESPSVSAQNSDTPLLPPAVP

[36] = in vivo; details: Sprague-Dawley, rat, iv, 3 mg/kg; remark: listed apart in the source
[37] = in vivo; details: Sprague-Dawley, rat, po, 15 mg/kg; remark: listed apart in the source
[38] = in vitro; details: Sprague-Dawley, rat, plasma; remark: listed apart in the source
[39] = in vivo; details: Sprague-Dawley, rat, po, 15 mg/kg; remark: listed apart in the source
[40] = biological target: Histone deacetylase 3 (Homo sapiens, UniProt O15379)
Sequence of Histone deacetylase 3 (O15379 whole entry): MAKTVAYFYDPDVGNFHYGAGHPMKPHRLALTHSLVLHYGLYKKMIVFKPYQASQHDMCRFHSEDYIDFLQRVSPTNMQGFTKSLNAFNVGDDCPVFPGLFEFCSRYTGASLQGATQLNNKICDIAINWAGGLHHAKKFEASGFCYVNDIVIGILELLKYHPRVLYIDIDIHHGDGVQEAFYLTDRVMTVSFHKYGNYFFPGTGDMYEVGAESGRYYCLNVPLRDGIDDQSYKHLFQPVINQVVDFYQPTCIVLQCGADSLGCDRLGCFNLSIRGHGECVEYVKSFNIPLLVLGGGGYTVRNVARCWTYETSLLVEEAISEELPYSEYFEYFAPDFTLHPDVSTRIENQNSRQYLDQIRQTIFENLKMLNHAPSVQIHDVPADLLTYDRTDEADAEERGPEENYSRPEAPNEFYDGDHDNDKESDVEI

[41] = in vivo; details: Sprague-Dawley, rat, po, 15 mg/kg; remark: listed apart in the source
[42] = biological target: Tyrosine-protein kinase JAK2 (Homo sapiens, UniProt O60674)

T1 sequence (P23458 whole entry): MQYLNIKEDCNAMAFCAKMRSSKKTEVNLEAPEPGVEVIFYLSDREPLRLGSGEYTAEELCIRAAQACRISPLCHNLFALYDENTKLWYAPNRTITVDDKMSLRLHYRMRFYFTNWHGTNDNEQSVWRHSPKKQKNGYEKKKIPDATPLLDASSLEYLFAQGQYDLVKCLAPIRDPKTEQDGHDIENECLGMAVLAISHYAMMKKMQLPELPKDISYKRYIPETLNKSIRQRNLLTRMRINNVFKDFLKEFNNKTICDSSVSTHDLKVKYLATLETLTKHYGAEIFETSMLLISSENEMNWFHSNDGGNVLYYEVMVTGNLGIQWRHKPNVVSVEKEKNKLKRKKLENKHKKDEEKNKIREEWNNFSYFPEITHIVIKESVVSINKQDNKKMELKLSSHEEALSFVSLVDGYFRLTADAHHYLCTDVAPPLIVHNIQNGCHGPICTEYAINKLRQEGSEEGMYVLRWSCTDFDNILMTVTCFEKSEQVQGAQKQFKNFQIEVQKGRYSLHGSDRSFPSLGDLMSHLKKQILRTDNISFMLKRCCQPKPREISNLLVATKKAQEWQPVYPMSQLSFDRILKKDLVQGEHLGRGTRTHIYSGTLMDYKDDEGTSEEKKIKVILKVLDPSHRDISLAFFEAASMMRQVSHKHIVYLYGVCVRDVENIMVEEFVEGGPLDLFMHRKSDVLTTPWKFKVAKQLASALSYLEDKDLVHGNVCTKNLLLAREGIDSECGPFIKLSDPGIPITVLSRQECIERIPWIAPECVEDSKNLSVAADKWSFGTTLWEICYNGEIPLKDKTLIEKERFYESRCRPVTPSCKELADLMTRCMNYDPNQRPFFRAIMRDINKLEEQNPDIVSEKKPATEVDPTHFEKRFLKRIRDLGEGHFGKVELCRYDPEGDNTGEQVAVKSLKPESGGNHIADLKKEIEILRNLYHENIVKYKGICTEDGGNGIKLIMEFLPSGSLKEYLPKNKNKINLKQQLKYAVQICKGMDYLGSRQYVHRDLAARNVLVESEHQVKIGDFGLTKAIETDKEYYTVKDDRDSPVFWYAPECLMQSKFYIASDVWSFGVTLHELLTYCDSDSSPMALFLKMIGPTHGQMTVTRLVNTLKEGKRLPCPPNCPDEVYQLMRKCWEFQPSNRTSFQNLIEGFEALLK
Sequence of Muscle, skeletal receptor tyrosine-protein kinase (Homo sapiens) (O15146 whole entry): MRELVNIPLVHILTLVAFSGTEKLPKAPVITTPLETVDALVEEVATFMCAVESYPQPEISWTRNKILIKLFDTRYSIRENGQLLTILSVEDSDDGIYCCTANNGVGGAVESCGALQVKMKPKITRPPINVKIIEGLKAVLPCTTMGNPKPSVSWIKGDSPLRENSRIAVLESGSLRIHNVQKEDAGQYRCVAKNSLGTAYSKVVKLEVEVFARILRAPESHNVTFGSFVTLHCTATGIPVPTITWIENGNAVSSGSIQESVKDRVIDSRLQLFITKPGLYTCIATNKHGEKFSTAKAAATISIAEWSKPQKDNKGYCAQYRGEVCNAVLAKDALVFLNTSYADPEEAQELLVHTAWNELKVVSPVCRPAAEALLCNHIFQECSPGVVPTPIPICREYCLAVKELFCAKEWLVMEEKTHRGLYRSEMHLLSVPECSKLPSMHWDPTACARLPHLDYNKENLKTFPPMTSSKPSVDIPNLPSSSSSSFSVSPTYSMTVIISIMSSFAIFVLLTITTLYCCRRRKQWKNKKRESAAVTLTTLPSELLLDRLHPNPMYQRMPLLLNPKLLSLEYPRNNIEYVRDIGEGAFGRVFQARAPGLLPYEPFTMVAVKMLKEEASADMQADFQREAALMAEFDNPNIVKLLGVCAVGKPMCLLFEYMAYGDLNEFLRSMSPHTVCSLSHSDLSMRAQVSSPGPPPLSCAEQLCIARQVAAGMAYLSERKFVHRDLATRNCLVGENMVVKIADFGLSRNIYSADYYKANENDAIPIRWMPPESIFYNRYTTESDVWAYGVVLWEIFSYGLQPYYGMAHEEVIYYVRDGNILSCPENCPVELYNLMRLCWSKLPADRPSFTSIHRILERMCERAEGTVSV

Cc1cnc(Nc2ccc(OCCCCCCC(=O)NO)c(F)c2)nc1Nc1cccc(S(=O)(=O)NC(C)(C)C)c1
inhibition [1]: 80%
IC50 [2]: 0.299 µM
AUC(0-t) at 24 h [3]: 549 ng·h/mL
inhibition [4]: 80%
IC50 [5]: 0.954 µM
Tmax at 24 h [6]: 2.55 h
IC50 [7]: 1.22 µM
IC50 [8]: 0.00043 µM
bioavailability at 24 h [9]: 21.6%
IC50 [10]: 3.04 µM
IC50 [11]: 3.37 µM
half-life at 24 h [12]: 1.81 h
IC50 [13]: > 10 µM
IC50 [14]: > 10 µM
IC50 [15]: 1.98 µM
IC50 [16]: 0.127 µM
MRT at 24 h [17]: 9.66 min
inhibition [18]: 70%
Vd at 24 h [19]: 0.951 L/kg
inhibition [20]: 80%
IC50 [21]: 0.041 µM
IC50 [22]: 1.27 µM
half-life at 24 h [23]: 6.72 min
AUC(0-t) at 22 h [24]: 169000 ng·h/mL
IC50 [25]: > 10 µM
IC50 [26]: 0.24 µM
IC50 [27]: 0.78 µM
IC50 [28]: 3.25 µM
IC50 [29]: > 10 µM
IC50 [30]: > 10 µM
Vd [31]: 15.411 L/kg
IC50 [32]: 0.00698 µM
IC50 [33]: 0.0002 µM
AUC(0-t) at 24 h [34]: 508 ng·h/mL
IC50 [35]: 0.931 µM
clearance at 24 h [36]: 98.3 mL/min/kg
Cmax at 24 h [37]: 79.1 ng/mL
half-life at 22 h [38]: 8.49 h
MRT at 24 h [39]: 5.11 h
IC50 [40]: 0.0739 µM
CL/F at 24 h [41]: 98.3 mL/min/kg

Cc1cnc(Nc2ccc(OCCCCCCC(=O)NO)c(Cl)c2)nc1Nc1cccc(S(=O)(=O)NC(C)(C)C)c1
IC50 [7]: 4.7 µM
IC50 [10]: 4.06 µM
IC50 [11]: 7.13 µM
IC50 [15]: 6.06 µM
IC50 [22]: 1.43 µM
IC50 [26]: 0.81 µM
IC50 [28]: 11.5 µM

Cc1cnc(Nc2ccc(OCCCCCCCC(=O)NO)cc2)nc1Nc1cccc(S(=O)(=O)NC(C)(C)C)c1
IC50 [7]: 7.16 µM
IC50 [10]: 4.94 µM
IC50 [11]: 6.5 µM
IC50 [15]: 9.06 µM
IC50 [22]: 2.95 µM
IC50 [26]: 1.66 µM
IC50 [28]: 10.9 µM

Cc1cnc(Nc2ccc(OCCCC(=O)NO)cc2)nc1Nc1cccc(S(=O)(=O)NC(C)(C)C)c1
IC50 [42]: 0.0123 µM

Cc1cc(Nc2ncc(C)c(Nc3cccc(S(=O)(=O)NC(C)(C)C)c3)n2)ccc1OCCCCCCC(=O)NO
IC50 [7]: 8.85 µM
IC50 [10]: 4.92 µM
IC50 [11]: 4.91 µM
IC50 [15]: 8.93 µM
IC50 [22]: 3.08 µM
IC50 [26]: 1.73 µM
IC50 [28]: > 50 µM

COc1cc(Nc2ncc(C)c(Nc3cccc(S(=O)(=O)NC(C)(C)C)c3)n2)ccc1OCCCCCCC(=O)NO
IC50 [7]: 5.49 µM
IC50 [10]: 3.67 µM
IC50 [11]: 4.41 µM
IC50 [15]: 4.68 µM
IC50 [22]: 1.49 µM
IC50 [26]: 1.65 µM
IC50 [28]: 7.27 µM
